Legend:
[1] = Raw cotton bleaching, pH control by continuously adding NaOH (Experiment 1); conditions: for Whiteness (Berger) Wb: 20 microM catalyst, unbuffered, 0.2 g/l DTPA, H2O2, 80° C., 30 minutes
Experimental: Raw cotton with a Berger Whiteness value of 5.5+/−1.0 was treated as follows: 6 grams of the cotton was immersed into temperature-controlled beaker glasses a 60 ml solution (cloth/liquor ratio of 1/10) containing 20 microM of [Mn2O3(Me3-TACN)2] […]
Drops of NaOH (1M) were added to maintain the pH (within 0.2 pH units) for 30 minutes of agitated solutions at 75 to 80° C. The pH was monitored with a pH meter. Subsequently the cotton swatches were rinsed with 2 to 3 liters of hot demineralised water (80° C.), then washed with copious amounts of demineralised water, spun in a spin drier for 3 minutes and dried overnight under ambient conditions. The optical properties of the cloths were then measured using a Minolta spectrophotometer CM-3700d, using L, a, b values which are converted to Berger Whiteness values.
The values of the whiteness is expressed in Berger units. The formula of Berger whiteness is given below: Wberger=Y+a.Z−b.X, where a=3.448 and b=3.904.
The values X, Y, Z are the coordinates of the achromatic point.

[2] = Raw cotton bleaching, NaOH/H2O2 pretreatment without catalyst, then lower pH and add catalyst (Experiment 2)
Experimental: Raw cotton with a Berger Whiteness value of 5.5+/−1.0 was treated as follows: 6 grams of the cotton was immersed into temperature-controlled beaker glasses of a 60 ml solution (cloth/liquor ratio of 1/10), containing 0.5 g/l DTPA, 2 g/l Sandoclean PCJ, 2.3% H2O2 (equals to 6.66 ml (35%)/1; w/w wrt cotton), for 15 minutes at 75° C. Subsequently, sulphuric acid was added (1M) until the desired pH was added followed by 20 microM of [Mn2O3(Me3-TACN)2] (PF6)2.H2O and the mixture left for 15 minutes with continuous stirring. No NaOH solution was added during the bleaching process in the presence of catalyst. After the allocated time, the cloths are washed and dried as exemplified above. The values of the whiteness are expressed in Berger units, as defined above.
Table 2: Whiteness (Berger) results obtained using 20 microM [Mn2O3(Me3-TACN)2] (PF6)2.H2O in an unbuffered solution with 0.2 g/l DTPA at 75° C. for 15 minutes, after having the cloths allowed to pretreat with NaOH/H2O2 for 15 minutes at 75° C. (entry 1) vs adding the catalyst at the beginning of the bleaching experiment at pH 9.75.

[3] = Raw cotton bleaching, high starting pH left to reduce during bleaching (Experiment 3); conditions: 10 microM catalyst, H2O2, DTPA, 77° C., 30 minutes; pH(init) 10.7, pH(final) 9.7
Experimental: A batch of raw cotton with a Berger Whiteness value of 0 was treated as follows: 6 grams of the cotton was immersed into temperature-controlled beaker glasses a 60 ml solution (cloth/liquor ratio of 1/10) containing 10 microM of [Mn2O3(Me3-TACN)2] (PF6)2.H2O, 2.3% H2O2 (equals to 6.66 ml (35%)/l; w/w wrt cotton), 0.4 g/l H5-DTPA (ex Akzo-Nobel; trade name Dissolvine D50; purity is 50%), and 2 g/l Sandoclean PCJ (ex Clariant). The temperature of the experiment was 77° C.
The pH of water containing Sandoclean, Na5DTPA, cotton and appropriate amount of NaOH was determined at room temperature, heated to 77° C., the pH value was monitored and then hydrogen peroxide was added. Then a correction for the addition of hydrogen peroxide was made by adding some extra NaOH. Then the catalyst was added and left for 30 minutes under stirring. The cloths were then rinsed and washed as described above. The pH of the solution after the bleaching stage was determined after allowing the solution cooled down to room temperature. As a comparative experiment to determine the effect of the manganese-triazacyclononane compound, no catalyst was added. The values of the whiteness are expressed in Berger units, as defined above.

[4] = 20° C.; cited from earlier work

Q: Which results are given for `CN1CCN(C)CCN(C)CC1.CN1CCN(C)CCN(C)CC1.F[P-](F)(F)(F)(F)F.F[P-](F)(F)(F)(F)F.O.[Mn+4].[Mn+4].[O-2].[O-2].[O-2]` [[Mn2O3(Me3-TACN)2](PF6)2•H2O, [Mn2O3(Me3-TACN)2] (PF6)2.H2O]?
A: Whiteness (Berger) Wb ([1]; pH(init) 9.75, pH(final) 7.3 (pH not controlled)): 51.0 Wb; Whiteness (Berger) Wb ([1]; pH(init) 10.0, pH(final) 9.5 (pH controlled with NaOH)): 63.1 Wb; Whiteness lower without DTPA than the system with DTPA ([1]; in the presence of catalyst, without DTPA added): about 10 Wb; Whiteness (Berger) Wb ([2]; 20 microM catalyst, 0.2 g/l DTPA, 75° C., 15 minutes after 15 minutes NaOH/H2O2 pretreatment, pH(step 1) 11, pH(step2) 10, pH(final) 9.4): 60.0 Wb; Whiteness (Berger) Wb ([2]; catalyst added at the beginning, no pretreatment, pH 9.75, pH(final) 7.6): 51.0 Wb; Whiteness (Berger) Wb [3]: 57.6 Wb; water solubility [4]: 10.8 g per liter

Source: patent publication US7976582B2, “Bleaching of substrates” (Conopco, Inc., priority 2007, dated 2011)
